Five compounds from patent US5747235A, “Silver halide light sensitive emulsion layer having enhanced photographic sensitivity” (Eastman Kodak Company, priority 1996, dated 1998) can be followed below.

Counter-ions that a name gives are not always drawn.

Assay [1] is described as follows: Example 12: photographic sensitivity and fog, color format, blue sensitized emulsion T-2. The following applies: for Photographic Sensitivity SWR2B: control=100. Here is the method: The AgBrI tabular silver halide emulsion T-2 from Example 3 was optimally chemically and spectrally sensitized by adding NaSCN, 1.07 mmole of the blue sensitizing dye D-I per mole of silver, Na3 Au(S2 O3)2 ·2H2 O, Na2 S2 O3 ·5H2 O, and a benzothiazolium finish modifier and then subjecting the emulsion to a heat cycle to 65° C. The hydroxybenzene, 2,4-disulfocatechcol (HB3) at a concentration of 13×10^-3 mole/mole Ag was added to the emulsion melt before the start of the chemical sensitization procedure. This chemically sensitized emulsion was then used to prepare the experimental coating variations given in Table X. For all the variations in Table X, the antifoggant and stabilizer tetraazaindene (TAI) was added to the emulsion melt in an amount of 1.75 g/mole Ag before any further addenda. The fragmentable two-electron donors S-3, S-9, S-6, or S-8 were then added to the emulsion melt.
The melts were prepared for coating by adding additional water, deionized gelatin and coating surfactants. Coatings were prepared by combining the emulsion melts with a melt containing deionized gelatin and an aqueous dispersion of the cyan-forming color coupler CC-1 and coating the resulting mixture on acetate support. The final coatings contained Ag at 0.81 g/m^2, coupler at 1.61 g/m^2, and gelatin at 3.23 g/m^2. The coatings were overcoated with a protective layer containing gelatin at 1.08 g/m^2, coating surfactants, and a bisvinylsulfonylmethyl ether as a gelatin hardening agent. The structure of the color coupler CC-1 is given below: [drawing 120]
For photographic evaluation, each of the coating strips was exposed for 0.01 sec to a 3000K color temperature tungsten lamp filtered to give an effective color temperature of 5500K and further filtered through a Kodak Wratten filter number 2B, and a step wedge ranging in density from 0 to 4 density units in 0.20 density steps. This exposure gives light absorbed mainly by the blue sensitizing dye. The exposed film strips were developed for 31/4 minutes in Kodak C-41 color developer. SWR2B, relative sensitivity for this filtered exposure, was evaluated at a cyan density of 0.15 units above fog.
The AgBrI tabular emulsion T-2 as described in Example 3 was sensitized as described in Example 10 except that the hydroxybenzene HB3 was added at the completion of the chemical sensitization procedure. For all the variations in Table XII, the antifoggant and stabilizer tetraazaindene (TAI) was added to the emulsion melt in an amount of 1.75 g/mole Ag before any further addenda. The fragmentable electron donors PMT-1 or PMT-2 were then added to the emulsion melt. These compounds contain a phenylmercaptotetrazole as the silver halide adsorbing group. The melts were then coated and tested as described in Example 10.

A short description of assay [2]: Example 2: photographic speed and fog, 365 nm exposure, acids vs corresponding esters, emulsion T-1. The arrangement: Fog: unit not given here. As to conditions: for Fog / S365: undyed; for S365: control=100. Here is the method:
This chemically sensitized emulsion was then used to prepare the experimental coating variations indicated in Table I. All of the experimental coating variations in Table I contained the hydroxybenzene 2,4-disulfocatechol (HB3) at a concentration of 13 mmole/mole Ag, added to the melt before the addition of any further addenda. The fragmentable electron donor compounds as indicated in Table I were added from an aqueous potassium bromide solution, or from a methanol solution, before additional water, gelatin, and surfactant were added to the emulsion melts.
(§1) For photographic evaluation, each of the coating strips was exposed for 0.1 sec to a 365 nm emission line of a Hg lamp filtered through a Kodak Wratten filter number 18A and a step wedge ranging in density from 0 to 4 density units in 0.2 density steps. The exposed film strips were developed for 6 min in Kodak Rapid X-ray Developer (KRX). S365, relative sensitivity at 365 nm, was evaluated at a density of 0.2 units above fog.
The coatings described in Table II all contain the hydroxybenzene, 2,4-disulfocatechol (HB3) at a concentration of 13 mmole/mole Ag, added to the melt before any further addenda.

The nature of assay [3]: Example 8: spectral sensitivity, cubic emulsion C-1. As to conditions: dye II 0.44 x10^-3, dyed control=100. How it is done: (§2) Additional testing was carried out to determine the response of the coatings described in Table III to a spectral exposure. Each of the coating strips was exposed for 0.1 sec on a wedge spectrographic instrument that covers the wavelength range from 400 to 750 nm. The instrument contains a tungsten light source and a step tablet ranging in density from 0 to 3 density units in 0.3 density steps. After developing exposed strips for 6 min in Kodak Rapid X-ray Developer (KRX), speed was read at 10 nm wavelength intervals at a density of 0.3 above fog. Correction for the instrument's variation in spectral irradiance with wavelength was done with a computer and a plot of log sensitivity vs. wavelength was generated. For this exposure, for each dye used, the relative sensitivity was set equal to 100 for the control coating with no fragmentable two-electron donor compound added.
(§3) Two cubic emulsions with uniform halide composition were precipitated using deionized gelatin. Emulsion C-1 was a AgErI emulsion with a 3% I content and a cubic edge length of 0.47 μm and emulsion C-2 was an AgBr emulsion with a cubic edge length of 0.52 μm. The emulsions were sulfur sensitized by adding 1,3-dicarboxymethyl-1,3-dimethyl-2-thiourea at 40° C.; the temperature was then raised to 60° C. at a rate of 5° C./3 min and the emulsions held for 20 min before cooling to 40° C. The amounts of the sulfur sensitizing compound used were 1.0×10^-5 mole/mole Ag for emulsion C-1, and 6.0×10^-6mole/mole Ag for emulsion C-2. These experimental coating variations contained the hydroxybenzene, 2,4-disulfocatechcol (HB3) at a concentration of 13 mmole/mole Ag, added to the melt before the addition of any further compounds. Some of the variations were then dyed with the sensitizing dye D-II, added from methanol solution. The fragmentable electron donor compounds were then added to the emulsion melts at 40° C. and coatings were prepared and tested as described in Example 1 except that the additional gelatin used to prepare the coatings described in Table VIII was deionized gelatin. Also, the dyed coatings were tested for their response to a spectral exposure as described in Example 3.

Assay [4] can be described thus: Example 8: photographic speed and fog, 365 nm exposure, cubic emulsion C-2. Also noted: Fog: unit not given here. Here is the method: as §1, §3
A short description of assay [5]: Example 8: spectral sensitivity, cubic emulsion C-2. The following applies: dye II 0.40 x10^-3, dyed control=100. Here is the method: as §2, §3
Where [6] appears, read: 0.16 x10^-3 mol/mol Ag, no dye, control=100.

Consider `Cc1ccc(N(CCC(=O)Nc2cccc(-n3nnnc3S)c2)C(C)C(=O)O)cc1` (stereo not shown) [PMT-1], for which, in assay [1] (0.5 x10^-6 mol/mol Ag), the Fog was found to be 0.09 and the “Photographic Sensitivity SWR2B” value is on record as 138. In assay [1] (1.5 x10^-6 mol/mol Ag), the Fog is 0.15 and the “Photographic Sensitivity SWR2B” value came to 166.

`CCSCCN(c1ccc(C)cc1)[C@@H](C)C(=O)[O-].[Na+]` [Compound S-3, N-(4-Methylphenyl)-N-(2-ethylthio-ethyl)alanine sodium salt]: the Fog came out at 0.07 in assay [2] (0.00220 x10^-3 mole/mole Ag); 0.06 in assay [2] (0.00700 x10^-3 mole/mole Ag); 0.11 in assay [2] (0.02200 x10^-3 mole/mole Ag); 0.57 in assay [2] (0.07000 x10^-3 mole/mole Ag); 1.24 in assay [2] (0.22000 x10^-3 mole/mole Ag). In addition, the figures for the S365 in assay [2] (0.00220 x10^-3 mole/mole Ag), in assay [2] (0.00700 x10^-3 mole/mole Ag) and in assay [2] (0.02200 x10^-3 mole/mole Ag) were 110, 120 and 141, respectively. Besides, the “speed and fog change” value in assay [2] (undyed T-1 emulsion) was “both speed and fog increases”.

For the compound `CC(C(=O)O)N(CCC(=O)Nc1cccc(-n2nnnc2S)c1)c1ccccc1` (stereo not shown) [PMT-2], the Fog in assay [1] (0.5 x10^-6 mol/mol Ag) is listed as 0.09; in assay [1] (1.4 x10^-6 mol/mol Ag), 0.10; in assay [1] (4.5 x10^-6 mol/mol Ag), 0.16. For the same compound, the “Photographic Sensitivity SWR2B” value in assay [1] (0.5 x10^-6 mol/mol Ag) was found to be 141; in assay [1] (1.4 x10^-6 mol/mol Ag), 166; in assay [1] (4.5 x10^-6 mol/mol Ag) it was 191.

As for `CCSCCN(c1ccc(C(=O)O)cc1)C(C)C(=O)O` (stereo not shown) [Compound S-11], the Sλ in assay [3] (0.05 x10^-3 mol/mol Ag) is recorded as 151; in assay [3] (0.16 x10^-3 mol/mol Ag) it was 178; in assay [5] (0.05 x10^-3 mol/mol Ag), 159; in assay [5] (0.16 x10^-3 mol/mol Ag), 186. Also, the Fog in assay [4] (0.05 x10^-3 mol/mol Ag, dye II 0.40 x10^-3) stood at 0.10; in assay [4] (0.16 x10^-3 mol/mol Ag, dye II 0.40 x10^-3), 0.14; in assay [4] (0.16 x10^-3 mol/mol Ag, no dye) it was 0.06; in assay [4] (0.50 x10^-3 mol/mol Ag, no dye) it was 0.06. The S365 in assay [4] (0.05 x10^-3 mol/mol Ag, dye II 0.40 x10^-3, dyed control 76) is recorded as 145; in assay [4] (0.16 x10^-3 mol/mol Ag, dye II 0.40 x10^-3, dyed control 76), 166; in assay [4] (setting [6]), 200; in assay [4] (0.50 x10^-3 mol/mol Ag, no dye, control=100), 209.

`CCSCCN(c1ccccc1)C(C)C(=O)O` (stereo not shown) [Compound S-9, N-(Phenyl)-N-(2-thioethyl-ethyl)alanine sodium salt]: the Sλ in assay [3] (0.005 x10^-3 mol/mol Ag) was 145; in assay [3] (0.016 x10^-3 mol/mol Ag) it was 178; in assay [5] (0.005 x10^-3 mol/mol Ag) it was 159; in assay [5] (0.016 x10^-3 mol/mol Ag), 195. Moreover, the Fog in assay [4] (0.005 x10^-3 mol/mol Ag, dye II 0.40 x10^-3) came out at 0.16; in assay [4] (0.016 x10^-3 mol/mol Ag, dye II 0.40 x10^-3), 0.19; in assay [4] (0.05 x10^-3 mol/mol Ag, no dye) it was 0.06; in assay [4] (0.16 x10^-3 mol/mol Ag, no dye), 0.06. Also, the S365 in assay [4] (0.005 x10^-3 mol/mol Ag, dye II 0.40 x10^-3, dyed control 76) worked out at 141; in assay [4] (0.016 x10^-3 mol/mol Ag, dye II 0.40 x10^-3, dyed control 76), 166; in assay [4] (0.05 x10^-3 mol/mol Ag, no dye, control=100), 204; in assay [4] (setting [6]), 209.
